Test results published in patent publication US10370728B2, “Antibiotic susceptibility testing using probes for preribosomal RNA” (THE REGENTS OF THE UNIVERSITY OF CALIFORNIA, priority 2012, dated 2019).
“Also recorded” adds a separate entry of the source.

Tests used:
[1] = tested on: susceptible strain of E. coli; test: Response of pre-rRNA to cefazolin in log phase culture; type: cell-based; settings: log phase of growth, within 30 min after addition
[2] = tested on: E. coli clinical urine isolate EC103; test: Electrochemical sensor assay of pre-rRNA and mature rRNA in E. coli EC103 cultures spiked with antibiotics; type: cell-based; settings: EC103 culture in MH broth, antibiotic added at 150 or 210 min; 25 μg/ml Rifampicin, 25 μg/ml Chloramphenicol, 4 μg/ml Ciprofloxacin, 16 μg/ml Gentamicin; vs culture without antibiotic
Protocol: Bacterial Strains and Media. E. coli clinical urine isolate EC103 (Amp^R) was obtained from the University of California-Los Angeles (UCLA) Clinical Microbiology Laboratory with approval from the UCLA and Veterans' Affair Institutional Review Boards and appropriate Health Insurance Portability and Accountability Act exemptions. EC103 was inoculated into Mueller Hinton (MH) broth with 12% glycerol (Becton Dickinson, Sparks, Md.) and stored at -80° C. EC103 was cultured overnight in MH broth with 64 μ[…] (Sigma, St. Louis, Mo.). EC103 was plated on Luria Broth (LB) agar (MOBIO Laboratories Inc., Carlsbad, Calif.) for counting colony-forming units (CFUs). EC103 Growth and Target Copy Number Experiments. Overnight cultures of EC103 were prepared by adding 5 μl of EC103 glycerol stock to 5 ml of MH broth with ampicillin and incubated at 37° C. overnight with shaking. The following day, the EC103 culture was diluted by adding 10 μl of the overnight culture to 100 ml of prewarmed and […] MH broth in a 500 ml flask, followed by incubation at 37° C. with shaking at 250 rpm. Every 30 min, including at 0 min and the overnight culture itself, a 1 ml sample was taken for OD600 measurement and 10-fold serial dilutions (100 μl into 900 μl) were performed in room temperature MH broth. Cell density was determined by plating serial dilutions in triplicate. At each time point, culture samples were transferred to an ice water bath or centrifuged immediately at 4° C. for 3 min at 14,000 rpm. The supernatants were then removed by aspiration, flash frozen in a dry ice-ethanol bath and stored at -80° C. […] Electrochemical detection. […] For thiolated capture probes, disposable 16-sensor bare Au electrode arrays were obtained from GeneFluidics ([…], Calif.). Each sensor of the array consisted of a 2.5 mm diameter central working electrode, surrounded by an Au counter electrode and an Au pseudo-reference electrode. The sensor chip was driven by a computer-controlled Helios multichannel electrochemical workstation (GeneFluidics, […], Calif.). Washing steps were carried out after each application of reagents by applying a stream of deionized H2O to the sensor surface for approximately 2-3 sec followed by 5 sec of drying under a stream of nitrogen. Prior to addition of the first reagent, the bare gold chips were dried as described above. To functionalize the working sensor surface, a fresh mixture of 0.05 μM thiolated capture probe and 300 μM 1,6-hexanedithiol (96%, Sigma, St. Louis, Mo.) was prepared in 10 mM Tris-HCl, 1 mM EDTA and 0.3 M NaCl (pH 8.0) and allowed to stand at room temperature for 10 min. […] This was then combined with the CFU/ml values determined by plating for each time point to generate target molecule number per CFU measurements.

Compound | drop in the amount of pre-rRNA compared to a culture without the antibiotic [1] | effect on mature rRNA level [2] | effect on pre-rRNA level [2]
Cc1nnc(SCC2=C(C(=O)O)N3C(=O)[C@@H](NC(=O)Cn4cnnn4)[C@H]3SC2)s1 [cefazolin] | one-log drop |  | 
O=C(N[C@H](CO)[C@H](O)c1ccc([N+](=O)[O-])cc1)C(Cl)Cl [chloramphenicol, Chloramphenicol] |  | decrease of mature rRNA; also recorded: selective decrease in mature rRNA | selective increase in pre-rRNA
Gentamicin |  | decrease in the pool of mature rRNA; also recorded: selective decrease in mature rRNA | without affecting the level of pre-rRNA
